According to article PMC2747306 (Structure (London, England : 1993), 2009):

B1: FimX^ΔEAL (residues 1-431: N-terminal response receiver, PAS and GGDEF domains) (domain or fragment)
chain: MAIEKKTIRLLILEDSQNEAERLVSLFRNAGHATRVHRLTSPEDLAETLQQSWDLLIAAPTSECLEPGEALATLRRQSRDIPFIQLVADNSSDAITDALMLGAQDALPQGEDERLVLVANRELAGLAERRARRAAELALREAEKRCQLLLDSSVDAITYVHDGMHIYANRSYMALFGYEDAEELEGLPVIDLIASCDQGAFKDFLKGYQNDQRQTELVCTGVKLDGQEFKARISLSAATYDGEPCIQVVIRGEVDNAELEEKLREVSSQDPVTGLYNRSHFLDLMDAAVQQAVTARKPSTLAYIHLNGYPSLQADHGLSGIDLLLGQLAGLMREQFGEEADLARFGDSIFAALFKGKTPEQAQAALQRLLKKVENHLFELNGRSAQATLSIGVAGLDEKTAKAQDVMNRAHRCADDAARKGGSQIKQYNPA

Columns and labels:
[1] = target: FimX^full-length (Pseudomonas aeruginosa, UniProt Q9HUK6); assay: isothermal titration calorimetry; type: binding
[2] = target: FimX^EAL (Pseudomonas aeruginosa, UniProt Q9HUK6); assay: isothermal titration calorimetry; type: binding
[3] = target: the molecule itself; assay: AUC

Molecule	Kd [1] [nM]	Kd [2] [nM]	stoichiometry N [3]
Nc1nc2c(ncn2[C@@H]2O[C@@H]3CO[P@](=O)(O)O[C@H]4[C@@H](O)[C@H](n5cnc6c(=O)[nH]c(N)nc65)O[C@@H]4CO[P@](=O)(O)O[C@H]3[C@H]2O)c(=O)[nH]1 [c-di-GMP]	125	104	–
B1	–	–	2
